Bounds are passed on as bounds.

For orientation: EC50 means the concentration at which the effect is half-maximal. A lower EC50 goes with greater potency.

This experiment concerns the target T1, hFXR (Homo sapiens, UniProt Q96RI1).
T1 construct: expressed in transfected cells; host or cells: CV-1 cells
T1 sequence (Q96RI1 1-486): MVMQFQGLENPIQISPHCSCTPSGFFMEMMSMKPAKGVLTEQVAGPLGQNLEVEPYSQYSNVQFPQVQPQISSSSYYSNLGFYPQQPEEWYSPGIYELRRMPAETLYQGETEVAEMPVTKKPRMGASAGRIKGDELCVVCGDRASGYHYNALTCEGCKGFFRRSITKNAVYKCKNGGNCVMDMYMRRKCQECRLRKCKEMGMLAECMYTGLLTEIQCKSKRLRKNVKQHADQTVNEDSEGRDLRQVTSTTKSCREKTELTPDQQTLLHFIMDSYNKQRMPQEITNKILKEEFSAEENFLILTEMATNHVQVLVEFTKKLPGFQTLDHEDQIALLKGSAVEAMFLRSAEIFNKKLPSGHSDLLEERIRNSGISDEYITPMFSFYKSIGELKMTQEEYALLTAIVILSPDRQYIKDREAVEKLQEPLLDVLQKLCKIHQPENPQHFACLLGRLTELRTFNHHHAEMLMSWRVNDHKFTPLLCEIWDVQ
T1 sequence (P19793 1-462 partner): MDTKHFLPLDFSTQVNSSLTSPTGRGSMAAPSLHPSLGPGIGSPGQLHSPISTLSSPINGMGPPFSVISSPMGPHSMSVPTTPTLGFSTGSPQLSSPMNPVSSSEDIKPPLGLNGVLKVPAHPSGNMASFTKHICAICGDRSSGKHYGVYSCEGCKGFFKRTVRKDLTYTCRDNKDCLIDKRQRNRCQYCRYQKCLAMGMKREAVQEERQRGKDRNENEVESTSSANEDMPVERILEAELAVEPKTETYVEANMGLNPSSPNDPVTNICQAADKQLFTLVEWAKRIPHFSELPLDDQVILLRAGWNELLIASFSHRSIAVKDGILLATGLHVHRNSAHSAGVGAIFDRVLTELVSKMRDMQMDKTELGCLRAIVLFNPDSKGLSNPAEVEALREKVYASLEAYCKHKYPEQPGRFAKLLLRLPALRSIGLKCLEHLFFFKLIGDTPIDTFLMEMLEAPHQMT
Kind of experiment: In Vitro FXR Assay (TK): hFXR/hRXR TK-ECRE-luc reporter in transfected CV-1 cells. The class given is cell-based. The settings on record: CV-1 cells transfected with hFXR, hRXR, 18 hrs incubation, luminescence, maximum efficacy <25% of Fexarmine control also classified as ‘+’. In short, it runs like this: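 CV-1 cells in charcoal-stripped serum were transiently transfected with hFXR, hRXR, TK-ECRE-luc reporter and pCMX-YFP plasmids for 18 h at 37 °C. Serially diluted compounds were added for 18 h, then cells were lysed and luciferase luminescence read.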
`COc1ccc([C@H]2CC[C@H](CN(c3cc(-c4coc(C(C)C)n4)ccn3)C(=O)[C@H]3CC[C@H](O)CC3)CC2)cc1C` [Compound 10.13, trans-4-Hydroxy-N-(4-(2-isopropyloxazol-4-yl)pyridine-2-yl)-N-((trans-4-(4-methoxy-3-methylphenyl)cyclohexyl)methyl) cyclohexanecarboxamide] came in with an EC50 of no more than 500 nM. As for `COc1ccc([C@H]2CC[C@H](CN(c3cccc(-c4coc(C5CC5)n4)c3)C(=O)[C@H]3CC[C@H](O)CC3)CC2)nc1C#N` [Compound 10.14, trans-N-((trans-4-(6-Cyano-5-methoxypyridin-2-yl)cyclohexyl)methyl)-N-(3-(2-cyclopropyloxazol-4-yl)phenyl)-4-hydroxycyclohexanecarboxamide], the figure is no more than 500 nM; as for `COc1ccc([C@H]2CC[C@H](CN(c3cccc(-c4ccc(N(C)C)nc4)c3)C(=O)[C@H]3CC[C@H](O)CC3)CC2)nc1C` [Compound 10.15, trans-N-(3-(6-(Dimethylamino)pyridine-3-yl)phenyl)-4-hydroxy-N-((trans-4-(5-methoxy-6-methylpyridin-2-yl)cyclohexyl)methyl) cyclohexanecarboxamide], no more than 500 nM. On to `COc1cnc([C@H]2CC[C@H](CN(c3cccc(-c4coc(C5CC5)n4)c3)C(=O)[C@H]3CC[C@H](O)CC3)CC2)cc1C` [Compound 10.16, trans-N-(3-(2-Cyclopropyloxazol-4-yl)phenyl)-4-hydroxy-N-((trans-4-(5-methoxy-4-methylpyridin-2-yl)cyclohexyl)methyl) cyclohexanecarboxamide], for which the EC50 lay in the range of 500 to 1000 nM. The compound `COc1ccc([C@H]2CC[C@H](CN(c3cc(-c4coc(C(C)C)n4)ccn3)C(=O)[C@H]3CC[C@H](O)CC3)CC2)nc1C` [Compound 10.17, trans-4-Hydroxy-N-(4-(2-isopropyloxazol-4-yl)pyridine-2-yl)-N-((trans-4-(5-methoxy-6-methylpyridin-2-yl)cyclohexyl)methyl) cyclohexanecarboxamide] gave an EC50 of no more than 500 nM. Then `COc1ccc([C@H]2CC[C@H](CN(c3cc(-c4coc(C5CC5)n4)ccn3)C(=O)[C@H]3CC[C@H](O)CC3)CC2)nc1C#N` [Compound 10.19, trans-N-((trans-4-(6-Cyano-5-methoxypyridin-2-yl)cyclohexyl)methyl)-N-(4-(2-cyclopropyloxazol-4-yl)pyridine-2-yl)-4-hydroxycyclohexanecarboxamide], with no more than 500 nM; and `COc1ccc([C@H]2CC[C@H](CN(c3cccc(-c4coc(C(C)C)n4)c3)C(=O)[C@H]3CC[C@H](O)CC3)CC2)nc1C#N` [Compound 10.20, trans-N-((trans-4-(6-Cyano-5-methoxypyridin-2-yl)cyclohexyl)methyl)-4-hydroxy-N-(3-(2-isopropyloxazol-4-yl)phenyl)cyclohexanecarboxamide], with no more than 500 nM.

`Cn1ccc2cc([C@H]3CC[C@H](CN(c4cccc(-c5coc(C6CC6)n5)c4)C(=O)[C@H]4CC[C@H](O)CC4)CC3)ncc21` [Compound 10.21] came in with an EC50 of 500 to 1000 nM.

`CCc1nc(-c2ccnc(N(C[C@H]3CC[C@H](c4ccc(OC)c(C)n4)CC3)C(=O)[C@H]3CC[C@H](O)CC3)c2)co1` [Compound 10.22, trans-N-(4-(2-Ethyloxazol-4-yl)pyridin-2-yl)-4-hydroxy-N-((trans-4-(5-methoxy-6-methylpyridin-2-yl)cyclohexyl)methyl) cyclohexanecarboxamide] displayed an EC50 of no more than 500 nM. As for `COc1ncc([C@H]2CC[C@H](CN(c3cc(-c4coc(C5CC5)n4)ccn3)C(=O)[C@H]3CC[C@H](O)CC3)CC2)cc1C` [Compound 10.23, trans-N-(4-(2-Cyclopropyloxazol-4-yl)pyridin-2-yl)-4-hydroxy-N-((trans-4-(6-methoxy-5-methylpyridin-3-yl)cyclohexyl)methyl) cyclohexanecarboxamide], the figure is no more than 500 nM; as for `COc1ncc([C@H]2CC[C@H](CN(c3cc(-c4coc(C5CC5)n4)ccn3)C(=O)[C@H]3CC[C@H](O)CC3)CC2)cc1Cl` [Compound 10.24, trans-N-((trans-4-(5-Chloro-6-methoxypyridin-3-yl)cyclohexyl)methyl)-N-(4-(2-cyclopropyloxazol-4-yl)pyridin-2-yl)-4-hydroxycyclohexanecarboxamide], no more than 500 nM. As for `COc1ccc(C23CCC(CN(c4cccc(-c5coc(C6CC6)n5)c4)C(=O)[C@H]4CC[C@H](O)CC4)(CC2)CC3)cc1C` [Compound 10], the figure is no more than 500 nM; as for `COc1ccc([C@H]2CC[C@H](CN(c3cccc(C#Cc4ncns4)c3)C(=O)[C@H]3CC[C@H](O)CC3)CC2)cc1C` [Compound 11, trans-N-(3-((1,2,4-Thiadiazol-5-yl)ethynyl)phenyl)-4-hydroxy-N-((trans-4-(4-methoxy-3-methylphenyl)cyclohexyl)methyl)cyclohexanecarboxamide], no more than 500 nM; as for `COc1ccc([C@H]2CC[C@H](CN(c3cccc(C#Cc4ncco4)c3)C(=O)[C@H]3CC[C@H](O)CC3)CC2)cc1C` [Compound 11.01, trans-4-Hydroxy-N-((trans-4-(4-methoxy-3-methylphenyl)cyclohexyl)methyl)-N-(3-(oxazol-2-ylethynyl)phenyl)cyclohexanecarboxamide], no more than 500 nM.

Consider `COc1ccc([C@H]2CC[C@H](CN(c3cccc(C#Cc4nncs4)c3)C(=O)[C@H]3CC[C@H](O)CC3)CC2)cc1C` [Compound 11.02, trans-N-(3-((1,3,4-Thiadiazol-2-yl)ethynyl)phenyl)-4-hydroxy-N-((trans-4-(4-methoxy-3-methylphenyl)cyclohexyl)methyl) cyclohexanecarboxamide], for which the EC50 was no more than 500 nM.

As for `COc1ccc([C@H]2CC[C@H](CN(c3cccc(C#Cc4nnn(C)n4)c3)C(=O)[C@H]3CC[C@H](O)CC3)CC2)cc1C` [Compound 11.03, trans-4-Hydroxy-N-((trans-4-(4-methoxy-3-methylphenyl)cyclohexyl)methyl)-N-(3-((2-methyl-2H-tetrazol-5-yl)ethynyl)phenyl) cyclohexanecarboxamide], the EC50 is no more than 500 nM.

`COc1ccc([C@H]2CC[C@H](CN(c3cccc(C#Cc4ccccn4)c3)C(=O)[C@H]3CC[C@H](O)CC3)CC2)cc1C` [Compound 11.04, trans-4-Hydroxy-N-((trans-4-(4-methoxy-3-methylphenyl)cyclohexyl)methyl)-N-(3-(pyridine-2-ylethynyl)phenyl)cyclohexanecarboxamide]: the EC50 was no more than 500 nM.

`COc1ccc([C@H]2CC[C@H](CN(c3cccc(C#Cc4ncn(C)n4)c3)C(=O)[C@H]3CC[C@H](O)CC3)CC2)cc1C` [Compound 12, trans-4-Hydroxy-N-((trans-4-(4-methoxy-3-methylphenyl)cyclohexyl)methyl)-N-(3-((1-methyl-1H-1,2,4-triazol-3-yl)ethynyl)phenyl)cyclohexanecarboxamide]: the EC50 is no more than 500 nM. Compound `COc1ccc([C@H]2CC[C@H](CN(c3cccc(C#Cc4cnn(C)n4)c3)C(=O)[C@H]3CC[C@H](O)CC3)CC2)cc1C` [Compound 12.01, trans-4-Hydroxy-N-((trans-4-(4-methoxy-3-methylphenyl)cyclohexyl)methyl)-N-(3-((2-methyl-2H-1,2,3-triazol-4-yl)ethynyl)phenyl)cyclohexanecarboxamide] came in with an EC50 of no more than 500 nM. The compound `COc1ccc([C@H]2CC[C@H](CN(c3cccc(C#Cc4cn(C)nn4)c3)C(=O)[C@H]3CC[C@H](O)CC3)CC2)cc1C` [Compound 12.02, trans-4-Hydroxy-N-((trans-4-(4-methoxy-3-methylphenyl)cyclohexyl)methyl)-N-(3-((1-methyl-1H-1,2,3-triazol-4-yl)ethynyl)phenyl)cyclohexanecarboxamide] showed a half-maximal effective concentration (EC50) of no more than 500 nM. Then `COc1ccc([C@H]2CC[C@H](CN(c3cccc(C#Cc4nnc[nH]4)c3)C(=O)[C@H]3CC[C@H](O)CC3)CC2)cc1C` [Compound 14, trans-N-(3-((1H-1,2,4-Triazol-3-yl)ethynyl)phenyl)-4-hydroxy-N-((trans-4-(4-methoxy-3-methylphenyl)cyclohexyl)methyl)cyclohexanecarboxamide], with no more than 500 nM; and `COc1ccc([C@H]2CC[C@H](CN(c3cccc(C#Cc4cn[nH]n4)c3)C(=O)[C@H]3CC[C@H](O)CC3)CC2)cc1C` [Compound 14.01, trans-N-(3-((2H-1,2,3-Triazol-4-yl)ethynyl)phenyl)-4-hydroxy-N-((trans-4-(4-methoxy-3-methylphenyl)cyclohexyl)methyl) cyclohexanecarboxamide], with no more than 500 nM.
